The source of these data is ChEMBL document CHEMBL1124247, “Synthesis and biological evaluation of 8-deazahomofolic acid and its tetrahydro derivative” (J Med Chem, 1988).

Bounds are passed on as bounds.

In assay [1] the test system is Lacticaseibacillus casei. Description: Tested for growth inhibition of Lactobacillus casei (ATCC […]). Type of assay: functional, organism-based.
For assay [2], the target named is T1, Thymidylate synthase (Lactobacillus casei, UniProt P00469).
T1 sequence (P00469 whole entry): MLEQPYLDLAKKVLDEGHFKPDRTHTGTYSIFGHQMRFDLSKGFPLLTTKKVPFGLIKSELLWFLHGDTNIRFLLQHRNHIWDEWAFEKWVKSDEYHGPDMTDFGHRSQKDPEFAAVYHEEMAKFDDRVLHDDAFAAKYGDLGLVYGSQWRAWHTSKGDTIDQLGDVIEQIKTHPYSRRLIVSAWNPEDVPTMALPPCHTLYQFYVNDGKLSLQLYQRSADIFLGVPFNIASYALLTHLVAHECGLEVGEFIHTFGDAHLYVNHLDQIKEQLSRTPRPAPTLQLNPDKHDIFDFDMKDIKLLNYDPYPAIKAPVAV
In words: Inhibitory activity against thymidylate synthase of Lactobacillus casei. Also on record: species or system Lacticaseibacillus casei.

Assay [3] relates to Lacticaseibacillus casei. In words: Tested for growth inhibition of Lactobacillus casei (MTX resistant). Type of assay: functional, organism-based.
The test system of assay [4] is Enterococcus faecium. In words: Tested for growth inhibition of Streptococcus faecium (ATCC 8043). Type of assay: functional, organism-based.
In assay [5] the test system is Enterococcus faecium. Description: Tested for growth inhibition of Streptococcus faecium (MTX resistant). The format is functional, organism-based.
In another assay the target is Dihydrofolate reductase (Lactobacillus casei, UniProt P00381). In words: Inhibitory activity against dihydrofolate reductase of Lactobacillus casei. Also on record: species or system Lacticaseibacillus casei.
Dihydrofolate reductase, sequence (P00381 whole entry): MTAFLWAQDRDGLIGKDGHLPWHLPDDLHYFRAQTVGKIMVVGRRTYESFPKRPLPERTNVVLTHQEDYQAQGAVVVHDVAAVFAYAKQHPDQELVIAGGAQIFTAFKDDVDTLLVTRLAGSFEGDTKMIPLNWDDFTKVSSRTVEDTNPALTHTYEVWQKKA
The next assay concerns L1210. In words: Tested for growth inhibition of L1210 leukemia cells. Type of assay: functional, cell-based. The note with it: Mus musculus.
Assay [6] has as its target Thymidylate synthase (Escherichia coli, UniProt C3SWJ7). Description: Inhibitory activity against thymidylate synthase of Escherichia coli.

Thymidylate synthase (Escherichia coli, UniProt C3SWJ7), sequence (C3SWJ7 whole entry): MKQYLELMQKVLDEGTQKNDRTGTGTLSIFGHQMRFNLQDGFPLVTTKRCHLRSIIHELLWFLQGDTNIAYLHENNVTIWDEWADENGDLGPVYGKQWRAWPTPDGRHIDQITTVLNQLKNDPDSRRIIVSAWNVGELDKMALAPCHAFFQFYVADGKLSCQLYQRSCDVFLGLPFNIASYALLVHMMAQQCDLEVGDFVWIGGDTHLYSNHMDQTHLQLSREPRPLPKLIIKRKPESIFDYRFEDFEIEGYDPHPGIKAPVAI

With `Nc1nc2c(c(=O)[nH]1)NC(CCNc1ccc(C(=O)NC(CCC(=O)O)C(=O)O)cc1)CC2` (stereo unspecified), the IC50 (as a rule, the concentration needed to halve the response being measured) in the assay with Lacticaseibacillus casei [1] was 35 nM; at Thymidylate synthase [2], 340 µM; in the assay with Lacticaseibacillus casei [3], more than 100000 nM; in the assay with Enterococcus faecium [4] it was 15 nM; in the assay with Enterococcus faecium [5], more than 100000 nM; against Dihydrofolate reductase, 230 µM. For the same compound, the IC50 with L1210 stood at 35.7 µM.
With `Nc1nc(O)c2nc(CCNc3ccc(C(=O)NC(CCC(=O)O)C(=O)O)cc3)cnc2n1` (stereo unspecified), the IC50 with Lacticaseibacillus casei [1] turned out to be 220 nM; in the assay with Enterococcus faecium [4], 2200 nM.
Turning to `Nc1nc(O)c2nc(CNc3ccc(C(=O)NC(CCC(=O)O)C(=O)O)cc3)ccc2n1` (stereo unspecified), the IC50 with Lacticaseibacillus casei [1] worked out at 1.4 nM; on Thymidylate synthase [2], 14 µM; with Lacticaseibacillus casei [3], 2040 nM; in the assay with Enterococcus faecium [4], 0.3 nM; in the assay with Enterococcus faecium [5] it was 294 nM; against Dihydrofolate reductase, 12 µM. This compound also had an IC50 in the assay on L1210 of 1.33 µM.
With `Nc1nc(O)c2c(n1)CCC(CNc1ccc(C(=O)NC(CCC(=O)O)C(=O)O)cc1)N2` (stereo unspecified), the IC50 was 2.7 nM with Lacticaseibacillus casei [1]; 75 µM on Thymidylate synthase [2]; more than 4000 nM with Lacticaseibacillus casei [3]; 1.6 nM with Enterococcus faecium [4]; 1040 nM with Enterococcus faecium [5]; 55 µM against Dihydrofolate reductase.
As for `Nc1nc(O)c2nc(CCNc3ccc(C(=O)NC(CCC(=O)O)C(=O)O)cc3)ccc2n1` (stereo unspecified), the IC50 is 19 nM in the assay with Lacticaseibacillus casei [1]; 160 µM against Thymidylate synthase [2]; 330 nM in the assay with Lacticaseibacillus casei [3]; 21 nM in the assay on Enterococcus faecium [4]; 1100 nM in the assay on Enterococcus faecium [5]; 220 µM against Dihydrofolate reductase. In the assay on L1210, this compound displayed an IC50 of 87 µM.
For `Nc1nc(O)c2c(n1)NCC(CCNc1ccc(C(=O)NC(CCC(=O)O)C(=O)O)cc1)N2` (stereo unspecified), the figures for the IC50 against Thymidylate synthase [6], with Lacticaseibacillus casei [1] and in the assay with Enterococcus faecium [4] were 2000 nM, 13 nM and 1.5 nM, respectively.
On to `CN(Cc1cnc2nc(N)nc(N)c2n1)c1ccc(C(=O)N[C@@H](CCC(=O)O)C(=O)O)cc1` [METHOTREXATE], for which the IC50 in the assay on Lacticaseibacillus casei [1] was 0.05 nM; with Enterococcus faecium [4] it was 0.8 nM; in the assay with Enterococcus faecium [5] it was 8000 nM; in the assay on L1210, 0.0039 µM.
